Results as given in the CheMixHub viscosity set.
“And” between values parts separate entries of the source, which are not always exact repeats. Equal entries are not always repeated.

Experiment: xn = mol fraction of the nth substance listed

OCCCOCCCO + NCCN
viscosity [mPa·s], 101 kPa
Settings	293.15 K	298.15 K	303.15 K	308.15 K	313.15 K	318.15 K
x1 = 0.023	1.77	1.59	1.34	1.21	1.09	0.991
x1 = 0.0474	2.1	1.86	1.55	1.4	1.24	1.13
x1 = 0.0733	2.51	2.19	1.81	1.62	1.44	1.3
x1 = 0.1007	3.07	2.66	2.16	1.92	1.71	1.53
x1 = 0.1299	3.75	3.23	2.59	2.28	2	1.79
x1 = 0.1611	4.7	4.01	3.16	2.76	2.43	–
x1 = 0.1943	5.97	4.99	3.9	3.34	2.88	–
x1 = 0.23	7.72	6.39	4.91	4.16	3.55	–
x1 = 0.2682	10.2	8.28	6.24	5.22	4.37	–
x1 = 0.3094	13.7	10.9	8.09	6.65	5.56	–
x1 = 0.3538	18.7	14.7	10.7	8.62	7	–
x1 = 0.4019	25.9	19.8	14.1	11.1	8.87	–
x1 = 0.4541	36.7	26.7	18.6	14.4	11.2	–
x1 = 0.5111	48.7	35.4	24.1	18.4	14.1	–
x1 = 0.5734	63.9	45.7	30.6	22.9	17.4	–
x1 = 0.6418	79.4	56.4	37.3	27.6	20.7	–
x1 = 0.7174	93.8	66	43.3	31.9	23.7	–
x1 = 0.8013	105	73.2	47.9	35.1	26	–
x1 = 0.8949	112	77.9	50.6	36.8	27.3	–

OCCNCCO + O
Settings	viscosity
293.15 K, 101 kPa, x1 = 0.15	12.5 mPa·s
293.15 K, 101 kPa, x1 = 0.34	91.2 mPa·s
293.15 K, 101.3 kPa, x1 = 0.02	1.499 mPa·s
293.15 K, 101.3 kPa, x1 = 0.04	2.204 mPa·s
293.15 K, 101.3 kPa, x1 = 0.1	6.515 mPa·s and 12.37 mPa·s
293.15 K, 101.3 kPa, x1 = 0.2	25.81 mPa·s
293.15 K, 101.3 kPa, x1 = 0.3	53.68 mPa·s
293.15 K, 101.3 kPa, x1 = 0.4	143.3 mPa·s
293.15 K, 101.3 kPa, x1 = 0.6	353.7 mPa·s
293.15 K, 101.33 kPa, x1 = 0.019	1.427 mPa·s
293.15 K, 101.33 kPa, x1 = 0.041	2.171 mPa·s
298.15 K, 101 kPa, x2 = 0.9	5.29 mPa·s
298.15 K, 101 kPa, x2 = 0.9316	3.1 mPa·s
298.15 K, 101.3 kPa, x1 = 0.02	1.259 mPa·s
298.15 K, 101.3 kPa, x1 = 0.04	1.875 mPa·s
298.15 K, 101.3 kPa, x1 = 0.07	3.04 mPa·s
298.15 K, 101.3 kPa, x1 = 0.1	5.221 mPa·s and 9.782 mPa·s
298.15 K, 101.3 kPa, x1 = 0.2	19.24 mPa·s
298.15 K, 101.3 kPa, x1 = 0.3	39.15 mPa·s
298.15 K, 101.3 kPa, x1 = 0.4	97.87 mPa·s
298.15 K, 101.3 kPa, x1 = 0.6	245.4 mPa·s
298.15 K, 101.33 kPa, x1 = 0.0093	1.051 mPa·s
298.15 K, 101.33 kPa, x1 = 0.0188	1.255 mPa·s
298.15 K, 101.33 kPa, x1 = 0.0414	1.875 mPa·s
298.15 K, 101.33 kPa, x1 = 0.069	3.24 mPa·s
298.15 K, 101.33 kPa, x1 = 0.1028	5.486 mPa·s
298.15 K, 101.33 kPa, x1 = 0.1469	10.34 mPa·s
298.15 K, 101.33 kPa, x1 = 0.2054	21.44 mPa·s
298.15 K, 101.33 kPa, x1 = 0.2884	48.78 mPa·s
298.15 K, 101.33 kPa, x1 = 0.4026	112.5 mPa·s
298.15 K, 101.33 kPa, x1 = 0.6059	262.4 mPa·s
298.15 K, 101.33 kPa, x1 = 0.8012	420.3 mPa·s
298.15 K, 101.33 kPa, x1 = 0.9438	524.1 mPa·s
303.15 K, 101 kPa, x1 = 0.0501	1.922 mPa·s
303.15 K, 101 kPa, x1 = 0.1004	4.138 mPa·s
303.15 K, 101 kPa, x1 = 0.1509	8.25 mPa·s
303.15 K, 101 kPa, x1 = 0.2006	14.47 mPa·s
303.15 K, 101 kPa, x1 = 0.3008	36.44 mPa·s
303.15 K, 101 kPa, x1 = 0.4014	72.38 mPa·s
303.15 K, 101 kPa, x1 = 0.5011	118.4 mPa·s
303.15 K, 101 kPa, x1 = 0.5957	166.7 mPa·s
303.15 K, 101 kPa, x1 = 0.6968	224.8 mPa·s
303.15 K, 101 kPa, x1 = 0.8034	279.7 mPa·s
303.15 K, 101 kPa, x1 = 0.9012	320.5 mPa·s
303.15 K, 101.3 kPa, x1 = 0.02	1.106 mPa·s
303.15 K, 101.3 kPa, x1 = 0.07	2.74 mPa·s
303.15 K, 101.3 kPa, x1 = 0.1	4.42 mPa·s and 8.008 mPa·s
303.15 K, 101.3 kPa, x1 = 0.2	15.32 mPa·s
303.15 K, 101.3 kPa, x1 = 0.3	31.19 mPa·s
303.15 K, 101.3 kPa, x1 = 0.4	73.47 mPa·s
303.15 K, 101.3 kPa, x1 = 0.6	162.7 mPa·s
303.15 K, 101.33 kPa, x1 = 0.068	2.542 mPa·s
308.15 K, 101 kPa, x1 = 0.04	1.455 mPa·s
308.15 K, 101 kPa, x1 = 0.0501	1.679 mPa·s
308.15 K, 101 kPa, x1 = 0.054	1.795 mPa·s
308.15 K, 101 kPa, x1 = 0.1004	3.502 mPa·s
308.15 K, 101 kPa, x1 = 0.1509	6.653 mPa·s
308.15 K, 101 kPa, x1 = 0.2006	11.56 mPa·s
308.15 K, 101 kPa, x1 = 0.3008	27.8 mPa·s
308.15 K, 101 kPa, x1 = 0.4014	53.45 mPa·s
308.15 K, 101 kPa, x1 = 0.5011	85.56 mPa·s
308.15 K, 101 kPa, x1 = 0.5957	119 mPa·s
308.15 K, 101 kPa, x1 = 0.6968	158.6 mPa·s
308.15 K, 101 kPa, x1 = 0.8034	197.1 mPa·s
313.15 K, 101 kPa, x1 = 0.054	1.585 mPa·s
313.15 K, 101.3 kPa, x1 = 0.02	0.896 mPa·s
313.15 K, 101.3 kPa, x1 = 0.2	10.02 mPa·s
313.15 K, 101.3 kPa, x1 = 0.3	17.89 mPa·s
313.15 K, 101.3 kPa, x1 = 0.4	41.02 mPa·s
313.15 K, 101.3 kPa, x1 = 0.6	88.54 mPa·s
313.15 K, 101.33 kPa, x1 = 0.0093	0.755 mPa·s
313.15 K, 101.33 kPa, x1 = 0.0188	0.878 mPa·s
313.15 K, 101.33 kPa, x1 = 0.019	0.898 mPa·s
313.15 K, 101.33 kPa, x1 = 0.041	1.28 mPa·s
313.15 K, 101.33 kPa, x1 = 0.0414	1.25 mPa·s
313.15 K, 101.33 kPa, x1 = 0.068	1.93 mPa·s
313.15 K, 101.33 kPa, x1 = 0.069	1.884 mPa·s
313.15 K, 101.33 kPa, x1 = 0.1469	5.522 mPa·s
313.15 K, 101.33 kPa, x1 = 0.2054	10.42 mPa·s
313.15 K, 101.33 kPa, x1 = 0.2884	21.56 mPa·s
313.15 K, 101.33 kPa, x1 = 0.4026	44.04 mPa·s
313.15 K, 101.33 kPa, x1 = 0.6059	95.06 mPa·s
313.15 K, 101.33 kPa, x1 = 0.8012	143.9 mPa·s
313.15 K, 101.33 kPa, x1 = 0.9438	175.3 mPa·s
323.15 K, 101 kPa, x1 = 0.041	1.08 mPa·s
323.15 K, 101 kPa, x1 = 0.15	4.27 mPa·s
323.15 K, 101 kPa, x1 = 0.34	20.7 mPa·s
323.15 K, 101.3 kPa, x1 = 0.02	0.747 mPa·s
323.15 K, 101.3 kPa, x1 = 0.04	1.063 mPa·s
323.15 K, 101.3 kPa, x1 = 0.07	1.604 mPa·s
323.15 K, 101.3 kPa, x1 = 0.2	6.501 mPa·s
323.15 K, 101.3 kPa, x1 = 0.3	12.21 mPa·s
323.15 K, 101.3 kPa, x1 = 0.4	24.08 mPa·s
323.15 K, 101.3 kPa, x1 = 0.6	52.49 mPa·s
323.15 K, 101.33 kPa, x1 = 0.068	1.469 mPa·s
